{
  "source": "patent US8785400B2",
  "about": "“Methods and compositions relating to islet cell neogenesis” (CureDM Group Holdings, LLC, priority 2006, dated 2014)",
  "system": "human cell cultures (mixed islets and ductal tissue cultures)",
  "test": "Insulin content by RIA, mixed human islet and ductal cultures (Example 2)",
  "type": "cell-based",
  "conditions": "vs HIP1, HIP, hamster INGAP, saline; FIG. 3",
  "protocol": "HIP2, HIP1, HIP, controls and progenitor fractions were cultured over 10 days, according to standard protocol. Briefly, pancreata from adult human cadaveric organ donors were obtained through the local organ procurement organization. Islets were isolated according to established protocols described by Bonner-Weir and Jamal. (Bonner-Weir et al. Pediatric Diabetes: 2004; 5 (Suppl 2): 16-22. Jamal et al. Cell Death Differ. 2005 July; 12(7): 702-12). HIP2, HIP1, HIP and INGAP were synthesized by Bachem Bioscience, Malvern, Pa. and were quality tested by HPCL to be greater than 95% pure. Each peptide was provided in lyophilized powder and was resuspended in isotonic saline solution. Stock solutions were made so that only 1-2 ul aliquots were added to primary cell cultures to reach the final concentrations provided below. Stock solutions were frozen and thawed a total of three times for the six day treatment. […]\nPancreata from adult human cadaveric organ donors were obtained through the local organ procurement organization. […] Free islets with diameters ranging from 75 to 400 μm, determined to be greater than 90% pure by staining with dithizone (Sigma) a zinc chelater, were collected and washed. […]\nInsulin levels were detected by Radioimmunoassay (RIA) from cultures treated with saline only (s/0), HIP2, HIP1, HIP and hamster INGAP. […]",
  "data": [
    {"substance": "HIP2: Human proIslet Peptide, fragment of human REG3A, in purified, synthetic, or recombinant form (SEQ ID NO:4) (IGLHDPTQGTEPNG; Fragment of naturally occurring human REG3 protein)", "values": [
      {"measurement": "increased bioactivity over the other agents used (insulin, RIA)", "value": "1.50-3.33 fold"}
    ]}
  ]
}
